Experimental data taken from US5597899A, “Tumor necrosis factor muteins” (Hoffmann-La Roche Inc., priority 1993, dated 1997).

Key:
human TNFR-p55 [1] = test: Competitive binding of purified muteins to recombinant human TNFR-p55; conditions: for Decrease in Binding Affinity with Respect to Wildtype TNFR-p55: IC50 of mutein divided by IC50 of wildtype TNFα; for Mutein Concentration for 50% Inhibition of 125I-TNFα Binding (IC50) TNFR-p55: purified protein, 10 ng/ml 125I-TNFα, > = competition but below 50% at 100 μg/ml, >> = no measurable competition at 100 μg/ml
Method: (§1) The cells were disrupted in a French press at a pressure of 20'000 psi or by sonication in a Branson Sonifier (Model 450, 2×2minat maximal output, on ice). […] Proteins were eluted with a linear NaCl gradient (0 to 400 mM in 20 mM Tris pH 9.0) at a flow rate of 1 ml/min. 5 ml fractions were collected and analyzed for the presence of TNFα muteins by SDS-PAGE. Positive fractions were pooled, dialyzed against 20 mM 2-morpholino-ethanesulfonic acid (MES) pH 6.0 and applied to a MonoS column (HR 5/5, LKB-Pharmacia) equilibrated in 20 mM MES pH 6.0. Proteins were eluted with a linear NaCl gradient (0 to 400 mM in 20 mM MES pH 6.0) at a flow rate of 0.5 ml/min. […] After dialysis against PBS the protein concentration was determined by the BCA Protein Assay (Pierce Chemical Company) using wild-type human TNFα as a standard or by absorbance measurements at 280 nm.
(§2) TNFα was labelled by the Iodogen method (Pierce Chemical Company) to a specific activity of about 10-30 μCi/μg. The volume was 100 μl/well and each concentration was assayed in duplicate or triplicate. After three hours at room temperature the wells were thoroughly washed with PBS and counted in a γ-counter.

human TNFR-p75 [2] = test: Competitive binding of purified muteins to recombinant human TNFR-p75; conditions: for Decrease in Binding Affinity with Respect to Wildtype TNFR-p75: IC50 of mutein divided by IC50 of wildtype TNFα; for Mutein Concentration for 50% Inhibition of 125I-TNFα Binding (IC50) TNFR-p75: purified protein, 10 ng/ml 125I-TNFα
Method: as §1, §2

human TNFR-p55 [3] = test: Solid phase radioligand competition binding assay, E. coli lysates, TNFR-p55; conditions: for Dilution of E. coli Lysate for 50% Inhibition of 125I-TNFα Binding (ID50) TNFR-p55: 10-fold serial dilutions 10^-2 to 10^-7, < = inhibition but below 50% at 1:100, << = no measurable inhibition at 1:100; for ID50 TNFR-p55 / ID50 TNFR-p75: ratio = 1 no receptor selectivity, > 1 TNFR-p55 selectivity, < 1 TNFR-p75 selectivity
Method: (§3) After 20 min incubation at room temperature 50 μl of 1M MgCl2, 20 μl of 5 mg/ml DNaseI, 50 μl of 5M NaCl and 50 μl of 10% NP-40 were added and the mixture was further incubated at room temperature for 15 min. 0.5 ml of the lysate clarified by centrifugation at 13'000 rpm for 5 min was subjected to ammonium sulfate precipitation (25%-70% cut). The 70% ammonium sulfat pellet was dissolved in 0.2 ml PBS and analyzed by sodium dodecyl sulfate polyacrylamide gel electrophoresis (SDS-PAGE) to confirm presence and approximate amount of the recombinant proteins.
as §2, with “lysate dilution” for “concentration”, “γ-counter. The results are given in Table 2 for lysates comprising the muteins indicated therein.” for “γ-counter.”

human TNFR-p75 [4] = test: Solid phase radioligand competition binding assay, E. coli lysates, TNFR-p75; conditions: 10-fold serial dilutions 10^-2 to 10^-7, < = inhibition but below 50% at 1:100, << = no measurable inhibition at 1:100
Method: as §3, with “10 ml suspensions of E. coli cells transformed and induced as described in Examples I and II were centrifuged at 4'000 rpm for 10 min and resuspended in 0.9 ml of lysis buffer (10 mM Tris-HCl pH 8.0, 5 mM EDTA, 2 mM PMSF, 10 mM benzamidine, 200 units/ml aprotinine and 0.1 mg/ml lysozyme). After” for “After”
96 well microtiter plates were coated with recombinant human […] TNFR-p75-hγ3 and TNFR-p55-hγ3 fusion proteins (extracellular portion of the receptor fused to the Fc part of human IgG3) at a concentration of 0.3 μg/ml and 0.1 μg/ml, respectively, in phosphate buffered saline (PBS, 100 μl/well, overnight at 4° C.) [Loetscher, H. et al. J. Biol. Chem. 266, 18324-18329 (1991); Lesslauer, W. et al. Eur. J. Immunol. 21, 2883-2886 (1991)]. After blocking with blocking buffer (50 mM Tris pH 7.4, 140 mM NaCl, 5 mM EDTA, 0.02% NAN3, 1% defatted milk powder) the microtiter plate was washed with PBS and incubated in blocking buffer containing 0.1% defatted milk powder with 10 ng/ml human wild-type ^125 I-TNFα and various dilutions of E. coli lysates ranging from 10^-2 to 10^-7 (10-fold serial dilutions). TNFα was labelled by the Iodogen method (Pierce Chemical Company) to a specific activity of about 10-30 μCi/μg. The volume was 100 μl/well and each lysate dilution was assayed in duplicate or triplicate. After three hours at room temperature the wells were thoroughly washed with PBS and counted in a γ-counter. The results are given in Table 2 for lysates comprising the muteins indicated therein.

Substance	Decrease in Binding Affinity with Respect to Wildtype TNFR-p55 (human TNFR-p55 [1])	Mutein Concentration for 50% Inhibition of 125I-TNFα Binding (IC50) TNFR-p55 (human TNFR-p55 [1])	Decrease in Binding Affinity with Respect to Wildtype TNFR-p75 (human TNFR-p75 [2]) [fold]	Mutein Concentration for 50% Inhibition of 125I-TNFα Binding (IC50) TNFR-p75 (human TNFR-p75 [2]) [µg/mL]	Dilution of E. coli Lysate for 50% Inhibition of 125I-TNFα Binding (ID50) TNFR-p55 (human TNFR-p55 [3]) [fold]	ID50 TNFR-p55 / ID50 TNFR-p75 (human TNFR-p55 [3])	Dilution of E. coli Lysate for 50% Inhibition of 125I-TNFα Binding (ID50) TNFR-p75 (human TNFR-p75 [4])
D143N: human TNFα mutein D143N	> 2,500 fold	> 100,000 ng/ml	6.7	0.3	< 100	< 0.3	330 fold
A145W: human TNFα mutein A145W	250 fold	10,000 ng/ml	2.5	0.1	< 100	< 1	< 100 fold
D143Y: human TNFα mutein D143Y	> 6,660 fold	> 100,000 ng/ml	17.5	0.35	< 100	< 0.08	1,330 fold
D143N-A145R: human TNFα mutein D143N-A145R (Example I)	> 2,500 fold	> 100,000 ng/ml	6.7	0.3	< 100	< 0.8	125 fold
A145F: human TNFα mutein A145F	33 fold	500 ng/mL	1.5	0.03	240	0.04	6,000 fold
A145R: human TNFα mutein A145R	2,500 fold	100,000 ng/ml	0.8	0.035	< 100	< 0.03	3,330 fold
